Legend:
pERK in NCI-H358 cells = test: Cell-based pERK HTRF assay; settings: Homo sapiens, 0.5 h, 30 min incubation
Method: pERK HTRF assays (Perkin Elmer) were used to determine the effectiveness of compounds of the present disclosure in disrupting KRAS G12C protein/effector signaling in cells.
On Day 1, cells (NCI-H358) were seeded into 96-well plates at 4×10^4 cells/well in complete growth media (RPMI, 10% FBS).
On Day 2, cells were treated with compounds at 0.25% DMSO. The source plate was created with compounds diluted in media at 5-fold the final assay concentration. The compounds were run in a 9-point concentration curve starting at 75 μM, with a 3-fold dilution between concentrations. 20 μL was transferred onto the cell plates (final volume in wells was 100 μL). Plates were harvested after 30 min incubation by aspirating media and adding kit-supplied 1× supplemented lysis buffer to all wells (75 μL per well). Plates were then placed on a plate shaker and incubated at 850 rpm for an additional 30 min.
Antibody mixture solution was prepared by diluting aliquoted d2 and Eu Cryptate antibodies 1:20 in kit supplied detection buffer, then mixed the diluted antibodies solutions (1:1 v:v). 4 μL of this solution was then added to a 384-well detection plate (Perkin Elmer; 6008230).
Samples were homogenized by pipetting up and down and then transferred (16 μL of cell lysates) from the 96-well cell culture plate to two wells of the HTRF 384-well detection plate containing the antibody solution. Plates were centrifuged (524 g for 1 min) and allowed to incubate between 4 and 24 h at room temperature. Maximum signal is reached after 4 h incubation time and remains stable over a period of 24 hours. Therefore, readings can be made between 4 and 24 h of incubation. Plates were centrifuged again (524 g for 1 min) and analyzed on the EnVision plate reader using the following settings: Excitation 320 nm, Bandwidth 75 nm; Emission 615 nm, Bandwidth 85 nm; Gain 100%; Flashes 100; Lag 60 μs.

[1] = biological target: T1, GppNHp-loaded KRAS4b (amino acids 1-169) G12C/C118S (Homo sapiens, UniProt P01116, C118S/G12C); test: MALDI-TOF MS covalent Cys12 modification, GppNHp-loaded KRAS G12C; assay type: binding; settings: 15 minutes reaction time, 1 μM protein, 1:2.5 protein to compound ratio
T1 construct: KRAS4b (amino acids 1-169) G12C/C118S protein; made in house
Method: (§1) MALDI-TOF MS analysis was performed using 1 μM protein target, and 1:2.5 protein to compound ratio was used.
(§2) Reaction: 1 μM of GppNHp, GTP, or GDP-loaded KRAS4b (amino acids 1-169) G12C/C118S protein (produced in-house by Protein Expression Laboratory, FNLCR/Leidos Biomed) in 20 mM 4-(2-hydroxyethyl)-1-piperazineethanesulfonic acid (HEPES) buffer containing 150 mM NaCl, 1 mM MgCl2, pH 7.3 was prepared freshly before assay. Ten-μL aliquots of protein were dispensed onto low volume 384-well plate, then 375 nL DMSO, and 25 nL of tested compounds from 5 mM DMSO stocks were added to appropriate wells using ECHO 555 acoustic liquid handler (Labcyte Inc.). For each reaction/assay, three blanks were prepared by mixing 10 μL of protein solution with 400 nL DMSO. The contents of the wells were carefully mixed by aspiration, and then each plate was sealed with an adhesive cover, centrifuged at 2000 g for 1 minute, and kept in the dark at room temperature until 5 min, 15 min, 30 min, 2 h, or 6 h collections.
(§3) Target pretreatment: Before each assay MALDI target (Bruker MPT 384 ground steel BC) was pre-treated by pipetting on each spot 0.75 μL of saturated sinapinic acid in acetonitrile (ACN).
(§4) Sample preparation: At collection time point, 2 μL of reaction mixtures were pipetted out into 20 μL MALDI matrix solution (saturated solution of sinapinic acid in 1:1 ACN:water solution containing 0.75% trifluoroacetic acid (TFA)) deposited on 384 well polypropylene plate. Resulting solution was mixed by aspiration, centrifuged at 2000 g for 1 minute, then 1 μL aliquots were dispensed on pre-treated MALDI target using Beckman Coulter Biomek FX^P 96/384-Span-8 Laboratory Automation Workstation. Finally, the MALDI target was dried under mild vacuum to produce spots with fine crystalline structure.
(§5) Measurements: MALDI-TOF measurements were performed on a Bruker Daltonics rapifleX Tissuetyper TOF-TOF mass spectrometer using linear mode and mass range from 18.6 to 21.6 kDa. Detector gain was set to 3.3× (483 V), sample rate to 5 GS/s, real time smoothing to medium (175 MHz), laser smart beam pattern was set to: “MS Thin Layer M5”, and the laser frequency was 10000 Hz. Spectra were automatically collected using custom AutoXecute method. Laser power was auto adjusted using fuzzy control. The peak selection range was set to be between 19000 and 21500 Da. Peak evaluation uses half width parameter set to be smaller than 40 Da for processed spectrograms (centroid peak detection: smoothed by SavitzkyGolay algorithm using 7 m/z width and 2 cycles; baseline was subtracted using median algorithm with flatness 1 and median level 0.01). Fuzzy control used Proteins/Oligonucleotides protocol with minimum half width 1/10 times above threshold. Up to 40000 satisfactory shots were collected in 10000 shot steps. Dynamic termination was implemented to finish data collection when peak signal/noise ratio reached a value of 50.
(§6) Spectra processing: Spectra were smoothed by SavitzkyGolay algorithm using 7 m/z width and three cycles. Centroid peak detection algorithm was used with signal to noise threshold set to 6, relative intensity threshold 4%, peak width 10 m/z and median baseline subtraction using flatness of 1 and median level of 0.01. Peak intensity and area under the peak were evaluated and recorded for all peaks between 19,300 Da and 21,550 Da.
(§7) Calculation of percent modification: Percent modification was calculated as a ratio of peak height for protein modified by compound to sum of peak height of remaining protein plus peak height for protein modified by compound. If multiple modifications were observed each was calculated as a ratio of peak height for given modification versus sum of peak heights for all observed protein species. Data reported in Table 5 are from the 15 minutes reaction time point.

[2] = biological target: T2, Avi-KRAS G12C (1-169) GppNHp/RAF1 RBD-3×FLAG (52-151) (Homo sapiens, UniProt P01116, G12C); test: KRAS G12C-effector (RAF1 RBD) protein:protein interaction HTRF disruption assay; assay type: biochemical; settings: PPI HTRF
T2 construct: Avi-KRAS G12C (1-169) GppNHp
Summary of the method: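 50 nM Avi-KRAS G12C (1-169) loaded with GppNHp, then 75 nM RAF1 RBD-3×FLAG, then HTRF detection mix, each step 1 h at room temperature. Buffer was 50 mM Tris pH 7.5, 100 mM NaCl, 5 mM MgCl2, 0.1% BSA, 0.01% Tween 20, 10% DMSO. Compounds titrated 30-0.02 μM (3× series). Read at 615 nm emission, reported as % activity vs DMSO (100%).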

[3] = biological target: T3, GTP-loaded KRAS4b (amino acids 1-169) G12C/C118S (Homo sapiens, UniProt P01116, C118S/G12C); test: MALDI-TOF MS covalent Cys12 modification, GTP-loaded KRAS G12C; assay type: binding; settings: 15 minutes reaction time, 1 μM protein, 1:2.5 protein to compound ratio
T3 construct: KRAS4b (amino acids 1-169) G12C/C118S protein; made in house
Method: as §1, §2, §3, §4, §5, §6, §7

[4] = biological target: T4, GDP-loaded KRAS4b (amino acids 1-169) G12C/C118S (Homo sapiens, UniProt P01116, C118S/G12C); test: MALDI-TOF MS covalent Cys12 modification, GDP-loaded KRAS G12C; assay type: binding; settings: 15 minutes reaction time, 1 μM protein, 1:2.5 protein to compound ratio
T4 construct: KRAS4b (amino acids 1-169) G12C/C118S protein; made in house
Method: as §1, §2, §3, §4, §5, §6, §7

Row | SMILES | IC50 (pERK in NCI-H358 cells) [nM] | GppNHp-KRAS G12C percent of modification [1] | IC50 [2] [nM] | GTP-KRAS G12C percent of modification [3] | GDP-KRAS G12C percent of modification [4]
1 | C=CC(=O)N1CC[C@@H](N(C)c2nc(N3CC(N4CC5(CC5)C4)C3)nc3c(F)c(-c4ccc(F)c5sc(N)c(C#N)c45)ncc23)C1 [Compound 14, 2-amino-4-[2-[3-(5-azaspiro[2.3]hexan-5-yl)azetidin-1-yl]-8-fluoro-4-[methyl-[(3R)-1-prop-2-enoylpyrrolidin-3-yl]amino]pyrido[4,3-d]pyrimidin-7-yl]-7-fluoro-benzothiophene-3-carbonitrile] | 100 to 1000 | C (10%≤percent of modification <50%) | ≤ 500 | C (10%≤percent of modification <50%) | A (percent of modification ≥70%)
2 | C=CC(=O)N1CC[C@@H](N(C)c2nc(OC[C@@]34CCCN3C[C@H](F)C4)nc3cc(-c4ccc(F)c5sc(N)c(C#N)c45)c(C(F)(F)F)nc23)[C@H]1C [Compound 15] | ≤ 100 | A (percent of modification ≥70%) | ≤ 500 | A (percent of modification ≥70%) | A (percent of modification ≥70%)
3 | C=CC(=O)N1CCC(N(C)c2nc(OC[C@@H]3C[C@@H](OC)CN3C)nc3c(F)c(-c4ccc(F)c5sc(N)c(C#N)c45)ncc23)[C@H]1COC (stereo partly shown) [Compound 20] | 100 to 1000 | A (percent of modification ≥70%) | ≤ 500 | A (percent of modification ≥70%) | A (percent of modification ≥70%)
4 | C=CC(=O)N1CCC(N(C)c2nc(OC[C@@H]3C[C@@H](F)CN3C)nc3c(F)c(-c4ccc(F)c5sc(N)c(C#N)c45)ncc23)[C@H]1C (stereo partly shown) [Compound 23] | 100 to 1000 | A (percent of modification ≥70%) | ≤ 500 | A (percent of modification ≥70%) | A (percent of modification ≥70%)
5 | C=CC(=O)N1CCC(N(C)c2nc(OC[C@@H]3C[C@@H](F)CN3C)nc3c(F)c(-c4ccc(F)c5sc(N)c(C#N)c45)ncc23)[C@H]1COC (stereo partly shown) [Compound 27] | 100 to 1000 | A (percent of modification ≥70%) | ≤ 500 | A (percent of modification ≥70%) | A (percent of modification ≥70%)
6 | C=CC(=O)N1CCC(N(C)c2nc(OC[C@@H]3C[C@@H](OC)CN3C)nc3c(F)c(-c4ccc(F)c5sc(N)c(C#N)c45)ncc23)[C@H]1C (stereo partly shown) [Compound 28] | 100 to 1000 | A (percent of modification ≥70%) | ≤ 500 | A (percent of modification ≥70%) | A (percent of modification ≥70%)

More lines, now with the values ahead:

Row | IC50 (pERK in NCI-H358 cells) [nM] | GppNHp-KRAS G12C percent of modification [1] | IC50 [2] [nM] | GTP-KRAS G12C percent of modification [3] | GDP-KRAS G12C percent of modification [4] | SMILES
7 | ≤ 100 | A (percent of modification ≥70%) | ≤ 500 | A (percent of modification ≥70%) | A (percent of modification ≥70%) | C=CC(=O)N1CC[C@@H](N(C)c2nc(OC[C@@]34CCCN3C[C@H](F)C4)nc3c(F)c(-c4ccc(F)c5sc(N)c(C#N)c45)ncc23)[C@H]1C [Compound 17, 4-(4-(((2R,3R)-1-acryloyl-2-methylpyrrolidin-3-yl)(methyl)amino)-8-fluoro-2-(((2R,7aS)-2-fluorotetrahydro-1H-pyrrolizin-7a(5H)-yl)methoxy)pyrido[4,3-d]pyrimidin-7-yl)-2-amino-7-fluorobenzo[b]thiophene-3-carbonitrile]
8 | ≤ 100 | A (percent of modification ≥70%) | ≤ 500 | A (percent of modification ≥70%) | A (percent of modification ≥70%) | C=CC(=O)N1C[C@@H](F)[C@@H](N(CC)c2nc(OC[C@@]34CCCN3C[C@H](F)C4)nc3c(F)c(-c4ccc(F)c5sc(N)c(C#N)c45)ncc23)C1 [Compound 18]
9 | ≤ 100 | A (percent of modification ≥70%) | ≤ 500 | A (percent of modification ≥70%) | A (percent of modification ≥70%) | C=CC(=O)N1CCC(N(CC)c2nc(OC[C@@]34CCCN3C[C@H](F)C4)nc3c(F)c(-c4ccc(F)c5sc(N)c(C#N)c45)ncc23)[C@H]1C (stereo partly shown) [Compound 19]
10 | 100 to 1000 | A (percent of modification ≥70%) | ≤ 500 | A (percent of modification ≥70%) | A (percent of modification ≥70%) | C=CC(=O)N1CCC(N(CC)c2nc(OC[C@@]34CCCN3C[C@H](F)C4)nc3c(F)c(-c4ccc(F)c5sc(N)c(C#N)c45)ncc23)[C@H]1COC (stereo partly shown) [Compound 25]
11 | 100 to 1000 | A (percent of modification ≥70%) | ≤ 500 | A (percent of modification ≥70%) | A (percent of modification ≥70%) | C=CC(=O)N1CCC(N(CC)c2nc(OC[C@@]34CCCN3C[C@H](F)C4)nc3c(Cl)c(-c4ccc(F)c5sc(N)c(C#N)c45)ncc23)[C@H]1COC (stereo partly shown) [Compound 30]

Reference: US20250270206A1, “COMPOSITIONS AND METHODS FOR INHIBITION OF RAS” (TheRas, Inc., priority 2022, published 2025)
